Measurements: patent publication US8952024B2, “Herbicidal pyrimidone derivatives” (E I du Pont de Nemours and Company, priority 2009, dated 2015)

Tests used:
Assay type in all cases: in vivo
[1] = system: barnyardgrass (Echinochloa crus-galli); experiment: Test A pre-/postemergence plant response
Procedure, shortened: (§1)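 Greenhouse pots of loam/sand received directed preemergence soil sprays or postemergence sprays (plants 2–10 cm, 1–2 leaf stage), compounds formulated in non-phytotoxic solvent with surfactant. Injury was rated visually versus untreated controls after about ten days on a 0 (no effect) to 100 (complete control) scale.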

corn (Zea mays) = experiment: Test A pre-/postemergence plant response
Procedure, shortened: as §1

[2] = system: giant foxtail (Setaria faberii); experiment: Test A pre-/postemergence plant response
Procedure, shortened: as §1

[3] = system: large crabgrass (Digitaria sanguinalis); experiment: Test A pre-/postemergence plant response
Procedure, shortened: as §1

[4] = system: morningglory (Ipomoea spp.); experiment: Test A pre-/postemergence plant response
Procedure, shortened: as §1

[5] = system: pigweed (Amaranthus retroflexus); experiment: Test A pre-/postemergence plant response
Procedure, shortened: as §1

[6] = system: velvetleaf (Abutilon theophrasti); experiment: Test A pre-/postemergence plant response
Procedure, shortened: as §1

[7] = system: wheat (Triticum aestivum); experiment: Test A pre-/postemergence plant response
Procedure, shortened: as §1

[8] = system: winter barley (Hordeum vulgare); experiment: Test B postemergence plant response; settings: for Barley plant response rating (0 to 100 scale): 62 g ai/ha, 0 is no effect
Procedure, shortened: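 Plants at the 1- to 4-leaf stage (2 to 18 cm tall), grown in pots of peat moss/vermiculite medium with wetting agent and starter nutrients, received postemergence applications of test chemicals. After 13 to 15 days in a greenhouse, injury was rated visually against untreated controls on a 0 (no effect) to 100 (complete control) scale.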

[9] = system: barnyardgrass (Echinochloa crus-galli); experiment: Test B flooded paddy test; settings: for Plant response rating, Flood, Barnyardgrass: 250 g ai/ha, flooded paddy test, visual rating on 0 to 100 scale (0 no effect, 100 complete control) after 13 to 15 days; for Plant response rating, Barnyardgrass: Flood (flooded paddy test), 13 to 15 days; for Barnyardgrass plant response rating: Flood, 31 g ai/ha, scale 0 to 100 (0 no effect, 100 complete control)
Procedure, shortened: (§2)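 Post-flood paddy application: compounds are introduced into water 3 cm deep over the soil, reaching plants at the 2-leaf stage. The water level is maintained, and after 13–15 days under greenhouse conditions, response is judged by eye relative to controls, where 100 means complete control.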

[10] = system: ducksalad (Heteranthera limosa); experiment: Test B flooded paddy test; settings: for Plant response rating, Flood, Ducksalad: 250 g ai/ha, flooded paddy test, visual rating on 0 to 100 scale (0 no effect, 100 complete control) after 13 to 15 days; for Plant response rating, Ducksalad: Flood (flooded paddy test), 13 to 15 days; for Ducksalad plant response rating: Flood, 31 g ai/ha, scale 0 to 100 (0 no effect, 100 complete control)
Procedure, shortened: as §2

rice (Oryza sativa) = experiment: Test B flooded paddy test; settings: for Plant response rating, Flood, Rice: 250 g ai/ha, flooded paddy test, visual rating on 0 to 100 scale (0 no effect, 100 complete control) after 13 to 15 days; for Plant response rating, Rice: Flood (flooded paddy test), 13 to 15 days; for Rice plant response rating: Flood, 31 g ai/ha, scale 0 to 100 (0 no effect, 100 complete control)
Procedure, shortened: as §2

[11] = system: umbrella sedge (Cyperus difformis); experiment: Test B flooded paddy test; settings: for Plant response rating, Flood, Sedge, Umbrella: 250 g ai/ha, flooded paddy test, visual rating on 0 to 100 scale (0 no effect, 100 complete control) after 13 to 15 days; for Plant response rating, Sedge, Umbrella: Flood (flooded paddy test), 13 to 15 days; for Sedge, Umbrella plant response rating: Flood, 31 g ai/ha, scale 0 to 100 (0 no effect, 100 complete control)
Procedure, shortened: as §2

[12] = Postemergence, 125 g ai/ha, 0 to 100 scale where 0 is no effect and 100 is complete control
[13] = Postemergence, 500 g ai/ha, visual injury, 0 to 100 scale (0 no effect, 100 complete control), approx. ten days
[14] = Preemergence, 125 g ai/ha, 0 to 100 scale, 0 = no effect, 100 = complete control
[15] = Preemergence, 500 g ai/ha, 0 to 100 scale, 0 = no effect, 100 = complete control
[16] = postemergence, 100 is complete control, 13 to 15 days
[17] = Postemergence, 31 g ai/ha, 0 to 100 scale (0 no effect, 100 complete control)
[18] = Postemergence, 125 g ai/ha, scale 0 to 100 (0 no effect, 100 complete control)
[19] = Postemergence, 250 g ai/ha, scale 0 to 100 (0 no effect, 100 complete control), 13 to 15 days
[20] = 62 g ai/ha, scale of 0 to 100 where 0 is no effect and 100 is complete control
[21] = Postemergence, 500 g ai/ha, 0 to 100 scale, 0 = no effect, 100 = complete control, approx. ten days
[22] = Preemergence, 500 g ai/ha, visual injury, 0 to 100 scale (0 no effect, 100 complete control), approx. ten days
[23] = 125 g ai/ha, scale 0 to 100, 0 is no effect, 100 is complete control

Compound: O=C1CCCC(O)=C1C(=O)c1cnc(-c2cccc(F)c2)n(C2CCCCC2)c1=O [Compound 187]
- Plant response rating, Barnyardgrass [1, 12]: 90
- Barnyardgrass plant response rating [1, 13]: 100
- Plant response rating, Barnyardgrass [1, 14]: 20
- Plant response rating, Barnyardgrass [1, 15]: 90
- Plant response rating, Corn (corn (Zea mays); [12]): 0
- Corn plant response rating (corn (Zea mays); [13]): 50
- Plant response rating, Corn (corn (Zea mays); [14]): 0
- Plant response rating, Corn (corn (Zea mays); [15]): 0
- Plant response rating, Foxtail, Giant [2, 12]: 80
- Foxtail, Giant plant response rating [2, 13]: 90
- Plant response rating, Foxtail, Giant [2, 14]: 30
- Plant response rating, Foxtail, Giant [2, 15]: 90
- Plant response rating, Crabgrass, Large [3, 12]: 90
- Crabgrass, Large plant response rating [3, 13]: 100
- Plant response rating, Crabgrass, Large [3, 14]: 30
- Plant response rating, Crabgrass, Large [3, 15]: 90
- Plant response rating, Morningglory [4, 12]: 100
- Morningglory plant response rating [4, 13]: 100
- Plant response rating, Morningglory [4, 14]: 80
- Plant response rating, Morningglory [4, 15]: 90
- Plant response rating, Pigweed [5, 12]: 100
- Pigweed plant response rating [5, 13]: 100
- Plant response rating, Pigweed [5, 14]: 60
- Plant response rating, Pigweed [5, 15]: 70
- Plant response rating, Velvetleaf [6, 12]: 100
- Velvetleaf plant response rating [6, 13]: 100
- Plant response rating, Velvetleaf [6, 14]: 70
- Plant response rating, Velvetleaf [6, 15]: 100
- Plant response rating, Wheat [7, 12]: 0
- Wheat plant response rating [7, 13]: 0
- Plant response rating, Wheat [7, 14]: 0
- Plant response rating, Wheat [7, 15]: 0
- Barley plant response rating (0 to 100 scale) [8, 16]: 5
- Plant response rating, Barley [8, 17]: 0
- Plant response rating, Barley [8, 18]: 40
- Plant response rating, Barley [8, 19]: 40
- Plant response rating, Flood, Barnyardgrass [9]: 80
- Plant response rating, Barnyardgrass [9, 20]: 45
- Plant response rating, Flood, Ducksalad [10]: 100
- Plant response rating, Ducksalad [10, 20]: 95
- Plant response rating, Flood, Rice (rice (Oryza sativa)): 70
- Plant response rating, Rice (rice (Oryza sativa); [20]): 15
- Plant response rating, Flood, Sedge, Umbrella [11]: 100
- Plant response rating, Sedge, Umbrella [11, 20]: 95

Compound: CC(C)n1c(-c2ccccc2)ncc(C(=O)C2=C(O)CCCC2=O)c1=O [Compound 95]
- Plant response rating, Barnyardgrass [1, 12]: 80
- Plant response rating, Barnyardgrass [1, 21]: 90
- Plant response rating, Barnyardgrass [1, 14]: 40
- Plant response rating, Barnyardgrass [1, 22]: 80
- Plant response rating, Corn (corn (Zea mays); [12]): 0
- Plant response rating, Corn (corn (Zea mays); [21]): 10
- Plant response rating, Corn (corn (Zea mays); [14]): 0
- Plant response rating, Corn (corn (Zea mays); [22]): 0
- Plant response rating, Foxtail, Giant [2, 12]: 70
- Plant response rating, Foxtail, Giant [2, 21]: 90
- Plant response rating, Foxtail, Giant [2, 14]: 30
- Plant response rating, Foxtail, Giant [2, 22]: 60
- Plant response rating, Crabgrass, Large [3, 12]: 90
- Plant response rating, Crabgrass, Large [3, 21]: 90
- Plant response rating, Crabgrass, Large [3, 14]: 50
- Plant response rating, Crabgrass, Large [3, 22]: 90
- Plant response rating, Morningglory [4, 12]: 100
- Plant response rating, Morningglory [4, 21]: 100
- Plant response rating, Morningglory [4, 14]: 70
- Plant response rating, Morningglory [4, 22]: 90
- Plant response rating, Pigweed [5, 12]: 100
- Plant response rating, Pigweed [5, 21]: 100
- Plant response rating, Pigweed [5, 14]: 90
- Plant response rating, Pigweed [5, 22]: 100
- Plant response rating, Velvetleaf [6, 12]: 100
- Plant response rating, Velvetleaf [6, 21]: 100
- Plant response rating, Velvetleaf [6, 14]: 90
- Plant response rating, Velvetleaf [6, 22]: 100
- Plant response rating, Wheat [7, 12]: 0
- Plant response rating, Wheat [7, 21]: 0
- Plant response rating, Wheat [7, 14]: 0
- Plant response rating, Wheat [7, 22]: 0
- Plant response rating, Barley ([8]; 31 g ai/ha, postemergence, scale 0 to 100, 0 is no effect, 100 is complete control): 0
- Barley plant response rating (0 to 100 scale) [8, 16]: 0
- Plant response rating, Barley ([8]; Postemergence, 125 g ai/ha, visual rating after 13 to 15 days, scale 0 (no effect) to 100 (complete control)): 0
- Plant response rating, Barley ([8]; Postemergence, 250 g ai/ha, scale 0 to 100 (0 no effect, 100 complete control)): 0
- Plant response rating, Flood, Barnyardgrass [9]: 70
- Plant response rating, Barnyardgrass [9, 20]: 35
- Plant response rating, Barnyardgrass [9, 23]: 65
- Barnyardgrass plant response rating [9]: 20
- Plant response rating, Flood, Ducksalad [10]: 20
- Plant response rating, Ducksalad [10, 20]: 0
- Plant response rating, Ducksalad [10, 23]: 0
- Ducksalad plant response rating [10]: 0
- Plant response rating, Flood, Rice (rice (Oryza sativa)): 30
- Plant response rating, Rice (rice (Oryza sativa); [20]): 20
- Plant response rating, Rice (rice (Oryza sativa); [23]): 30
- Rice plant response rating (rice (Oryza sativa)): 0
- Plant response rating, Flood, Sedge, Umbrella [11]: 75
- Plant response rating, Sedge, Umbrella [11, 20]: 20
- Plant response rating, Sedge, Umbrella [11, 23]: 50
- Sedge, Umbrella plant response rating [11]: 0

Compound: CCCn1c(-c2cccc(Cl)c2)ncc(C(=O)C2=C(O)CCCC2=O)c1=O [Compound 190]
- Plant response rating, Barnyardgrass [1, 12]: 90
- Barnyardgrass plant response rating [1, 13]: 100
- Plant response rating, Barnyardgrass [1, 14]: 10
- Plant response rating, Barnyardgrass [1, 15]: 100
- Plant response rating, Corn (corn (Zea mays); [12]): 0
- Corn plant response rating (corn (Zea mays); [13]): 0
- Plant response rating, Corn (corn (Zea mays); [14]): 0
- Plant response rating, Corn (corn (Zea mays); [15]): 0
- Plant response rating, Foxtail, Giant [2, 12]: 80
- Foxtail, Giant plant response rating [2, 13]: 90
- Plant response rating, Foxtail, Giant [2, 14]: 60
- Plant response rating, Foxtail, Giant [2, 15]: 90
- Plant response rating, Crabgrass, Large [3, 12]: 90
- Crabgrass, Large plant response rating [3, 13]: 90
- Plant response rating, Crabgrass, Large [3, 14]: 60
- Plant response rating, Crabgrass, Large [3, 15]: 90
- Plant response rating, Morningglory [4, 12]: 100
- Morningglory plant response rating [4, 13]: 100
- Plant response rating, Morningglory [4, 15]: 70
- Plant response rating, Pigweed [5, 12]: 100
- Pigweed plant response rating [5, 13]: 100
- Plant response rating, Pigweed [5, 14]: 70
- Plant response rating, Pigweed [5, 15]: 100
- Plant response rating, Velvetleaf [6, 12]: 100
- Velvetleaf plant response rating [6, 13]: 100
- Plant response rating, Velvetleaf [6, 14]: 70
- Plant response rating, Velvetleaf [6, 15]: 100
- Plant response rating, Wheat [7, 12]: 0
- Wheat plant response rating [7, 13]: 0
- Plant response rating, Wheat [7, 14]: 0
- Plant response rating, Wheat [7, 15]: 0
- Barley plant response rating (0 to 100 scale) [8, 16]: 5
- Plant response rating, Barley [8, 17]: 0
- Plant response rating, Barley [8, 18]: 40
- Plant response rating, Barley [8, 19]: 70
- Plant response rating, Flood, Barnyardgrass [9]: 30
- Plant response rating, Barnyardgrass [9, 20]: 0
- Plant response rating, Barnyardgrass [9, 23]: 20
- Barnyardgrass plant response rating [9]: 0
- Plant response rating, Flood, Ducksalad [10]: 100
- Plant response rating, Ducksalad [10, 20]: 20
- Plant response rating, Ducksalad [10, 23]: 40
- Ducksalad plant response rating [10]: 20
- Plant response rating, Flood, Rice (rice (Oryza sativa)): 15
- Plant response rating, Rice (rice (Oryza sativa); [20]): 15
- Plant response rating, Rice (rice (Oryza sativa); [23]): 15
- Rice plant response rating (rice (Oryza sativa)): 15
- Plant response rating, Flood, Sedge, Umbrella [11]: 95
- Plant response rating, Sedge, Umbrella [11, 20]: 0
- Plant response rating, Sedge, Umbrella [11, 23]: 30
- Sedge, Umbrella plant response rating [11]: 0
